# Test system: C3A cells
# Assay: APAP-induced hepatotoxicity IC50 measurement with robotic liquid handler
# Type: cell-based
# Settings: Homo sapiens
# Description: Using the human liver cancer cell line C3A, cultured in the bioreactor, IC50 value measurements were conducted with a robotic liquid handler (FIG. 16).
smiles,measurement,setting,value
"CC(=O)Nc1ccc(O)cc1 [APAP, acetaminophen]",IC50,C3A cells cultured in Si3N4—SC (static),80 mM
same,IC50,C3A cells cultured in Si3N4—SCP (Si3N4 sandwich perfusion in 96-well bioreactor),71 mM
same,IC50,C3A cells cultured in collagen gel sandwich (static),84.6 mM

# Reference: patent publication US8617879B2, “Apparatus for cell or tissue culture” (Agency for Science, Technology and Research, priority 2009, dated 2013)
